# Where two headings read alike, the source gives them in different places.
# Tests used:
# HIV-1 IIIB = assay: MAGI-CXCR4 HIV-1 IIIB antiviral assay (β-galactosidase reporter); settings: for inhibition at 1 µM: MAGI, read-out: MAGI HIV IIIB % Inhibition at 1 uM, 1 uM compound; for T.I. (TC50/IC50): therapeutic index, MAGI assay; for MAGI HIV IIIB % Inhibition at 1 uM: 1 uM compound
# Excerpt: Example 2: MAGI-CXCR4 HIV-1 IIIB Assay Procedure
# (§1) MAGI-CXC4 cells (obtained from the NIH AIDS Research and Reference Reagent Program) are passed into T-75 flasks prior to use in the antiviral assay. MAGI-CXCR4 cells are derived from HeLa-CD4-LTR-β-gal cells. The cells have been engineered to express high levels of CD4 and […] and contain one copy of the HIV-1 LTR promoter driving expression of the β-galactosidase gene upon HIV-1 Tat transactivation. On the day preceding the assay, the cells are plated at 1.0×10^4 per well and incubated at 37° C. overnight. Total cell and viability quantification is performed using a hemacytometer and trypan blue exclusion.
# The virus used for these tests is the […](CXCR4-tropic strain HIV-1NL4-3 is also available for use). This virus was obtained from the NIH AIDS Research and Reference Reagent Program and was grown in Ghost Hi5/MAGI-CXCR4 co-cultures for the production of stock virus pools. For each assay, a pre-titered aliquot of virus is removed from the freezer (−80° C.) and allowed to thaw slowly to room temperature in a biological safety cabinet. The virus is re-suspended and diluted into tissue culture medium such that the amount of virus added to each well in a volume of […] is approximately ten TCID50/well (˜0.001 TCID50/cell).
# (§2) Compounds are evaluated at one or two concentrations (e.g., for initial screening) or in dose-response at six concentrations (triplicate wells/concentration). On the day of assay setup, compound dilutions are prepared at two-times (2×) the final required concentrations. Media used for plating the cells the day before assay setup is aspirated from the plates and replaced with 50 μL of the 2× compounds, followed by the addition of 50 μL of virus, which dilutes the compounds to the final 1× concentrations. Cell control wells (cells only) and virus control wells (cells plus virus) are included on each assay plate. Identical uninfected assay plates (virus replaced with media) are prepared for parallel cytotoxicity testing. The cultures are incubated for 48 hours or 6 days (depending on compound or client requirements) after which antiviral efficacy is measured as the inhibition of β-galactosidase reporter expression and cytotoxicity is monitored by MTS staining.
# A chemiluminescent endpoint is used to determine the extent of β-galactosidase expression as a measure of HIV-1 infection of the cells. Once HIV-1 has attached and entered the MAGI-CXCR4 cells, HIV-1 Tat transactivates the LTR dependent β-galactosidase enzyme to express higher than normal levels of β-galactosidase. Thus there is a direct relationship between the level of HIV-1 infection and the level of β-galactosidase detected in the cells. At 48 hours post infection, plates are aspirated and PBS is added to each well. Gal-screen reagent (Tropix, Bedford, Mass.) is then added per the manufacturer's instructions for chemiluminescent detection of β-galactosidase activity and incubated at room temperature for 90 minutes. The resulting chemiluminescence signal is then read using a Microbeta Trilux luminescence reader (PerkinElmer/Wallac).
# (§3) At assay termination, the cytotoxicity assay plates are stained with the soluble tetrazolium-based dye MTS (CellTiter Reagent, Promega) to determine cell viability and quantify compound toxicity. […] At termination of the assay, 15 μL of MTS reagent is added per well. The microtiter plates are then incubated 1.5-2 hrs at 37° C.; the incubation interval was chosen based on empirically determined times for optimal dye reduction. The plates are read spectrophotometrically at 490/650 nm with a Molecular Devices Vmax plate reader. Percent inhibition of virus replication and percent cell viability at each concentration are calculated using an in-house computer program.
# in vitro [1] = settings: human
# Method: as §1, §2, §3
# HIV IIIB virus = assay: Peripheral blood mononuclear cell HIV IIIB assay; settings: for IC50: read-out: PBMC-HIV IC50; for IC90: read-out: PBMC-HIV IC90; for T.I. (TC50/IC50): therapeutic index
# Method: (§4) To test efficacy of selected compounds, peripheral mononuclear cell assays are performed. Cells are infected for 6 days with live HIV IIIB virus and PBM cells are run in parallel for cytotoxicity testing, with or without selected agents. Efficacy of compounds as antagonists of the sdf-1 ligand to CXCR4 receptors was determined in I^125 labeled sdf-1 displacement assays from CXCR4-expressing CEM cells are performed.
# PBM cells = assay: in vitro
# Method: as §4
# MAGI-CXCR4 cells = assay: in vitro
# Method: as §1, §2, §3
# in vitro [2] = settings: human; remark: listed apart in the source
# Method: as §4
# [3] = Human immunodeficiency virus 1, IIIB, MAGI-CXCR4 cells
# [4] = Human immunodeficiency virus 1, IIIB, read-out: HIV IC90, MAGI-CXCR4 cells, further testing
# [5] = read-out: HIV IC50, MAGI-CXCR4 cells, further testing
# [6] = PBMC infected 6 days with live HIV IIIB
# [7] = read-out: HIV IC90, MAGI-CXCR4 cells, further testing
# [8] = Human immunodeficiency virus 1, IIIB, PBMC, 144 h
molecule,measurement,setting,value
NCCCCN(CC1CN(Cc2ccccc2)CCN1)C1CCCc2cccnc21 (stereo not drawn) [Compound 9],inhibition at 1 µM,HIV-1 IIIB; [3],92%
same,IC90,HIV-1 IIIB; [4],440 nM
same,IC50,HIV-1 IIIB; [5],30 nM
same,IC50,"HIV-1 IIIB; read-out: MAGI HIV IIIB IC50, MAGI-CXCR4 cells",30 nM
same,T.I. (TC50/IC50),HIV-1 IIIB,>333
same,CC50,in vitro [1],> 10000 nM
Cc1cn([C@H]2C[C@H](N=[N+]=[N-])[C@@H](CO)O2)c(=O)[nH]c1=O [AZT],IC50,HIV IIIB virus; [6],4 nM
same,IC90,HIV IIIB virus; [6],70 nM
same,T.I. (TC50/IC50),HIV IIIB virus; PBMC,>240
same,CC50,PBM cells,> 1000 nM
NCCCCN(CC1CN(Cc2ccccc2)CCN1)C1CCCc2cccnc21 (stereo not drawn) [Compound 8],MAGI HIV IIIB % Inhibition at 1 uM,HIV-1 IIIB; MAGI-CXCR4 cells,95%
same,IC90,HIV-1 IIIB; [7],720 nM
same,T.I. (TC50/IC50),HIV-1 IIIB,>67
same,CC50,MAGI-CXCR4 cells; human,> 10000 nM
"c1cc(CN2CCCNCCNCCCNCC2)ccc1CN1CCCNCCNCCCNCC1 [AMD3100, reference compound]",IC50,"HIV-1 IIIB; Human immunodeficiency virus 1, IIIB, read-out: HIV IC50, MAGI-CXCR4 cells, further testing",2 nM
same,IC90,HIV-1 IIIB; [4],7 nM
same,T.I. (TC50/IC50),HIV-1 IIIB,>5000
same,CC50,in vitro [1],> 10000 nM
same,IC50,HIV IIIB virus; [8],32 nM
same,IC90,HIV IIIB virus; [8],134 nM
same,T.I. (TC50/IC50),HIV IIIB virus; PBMC,>150
same,CC50 at 6 days,in vitro [2],> 5000 nM
CN(CC1CN(Cc2ccccc2)CCN1)C1CCCc2cccnc21 (stereo not drawn),inhibition at 1 µM,HIV-1 IIIB; [3],41%
NCCCCN(CC1CCc2ccccc2N1)C1CCCc2cccnc21 (stereo not drawn) [drawing 41],MAGI HIV IIIB % Inhibition at 1 uM,HIV-1 IIIB; MAGI-CXCR4 cells,31% @ 1 uM
NCCCCN(C[C@@H]1CC(c2ccccc2)CN1)C1CCCc2cccnc21 (stereo partly drawn),inhibition at 1 µM,HIV-1 IIIB; [3],20%
NCCCCN(C[C@@H]1CC(OCCCN)CN1C(=O)OCc1ccccc1)C1CCCc2cccnc21 (stereo partly drawn),inhibition at 1 µM,HIV-1 IIIB; [3],0%
NCCCCN(C[C@@H]1CC(OCc2ccccc2)CN1)C1CCCc2cccnc21 (stereo partly drawn),inhibition at 1 µM,HIV-1 IIIB; [3],0%
Maraviroc,IC50,HIV IIIB virus; [6],> 2000 nM
same,IC90,HIV IIIB virus; [6],> 2000 nM
NCCCCN(CC1CCc2ccccc2N1)C1CCCc2cccnc21 (stereo not drawn) [drawing 40],inhibition at 1 µM,HIV-1 IIIB; [3],42%
CN(CC1Cc2ccccc2CN1)C1CCCc2cccnc21 (stereo not drawn),inhibition at 1 µM,HIV-1 IIIB; [3],30%
O=C1c2ccccc2C(=O)N1CCCCN(CC1Cc2ccccc2CN1)C1CCCc2cccnc21 (stereo not drawn),inhibition at 1 µM,HIV-1 IIIB; [3],25%
CN(C[C@@H]1CC(OCCCN)CN1C(=O)OCc1ccccc1)C1CCCc2cccnc21 (stereo partly drawn),inhibition at 1 µM,HIV-1 IIIB; [3],0%
"Cc1ccc(-c2ccc3c(c2)C=C(C(=O)Nc2ccc(C[N+](C)(C)C4CCOCC4)cc2)CCC3)cc1 [TAK779, reference compound]",IC50,HIV-1 IIIB; [5],> 10000 nM
same,IC90,HIV-1 IIIB; [7],> 10000 nM
same,CC50,"MAGI-CXCR4 cells; read-out: TC50, MTS staining, uninfected MAGI-CXCR4 cells",> 10000 nM

# Reference: patent US10016408B2, “Chemokine CXCR4 receptor modulators and uses related thereto” (EMORY UNIVERSITY, priority 2010, dated 2018)
